Assay results: patent US20050124559A1, “Antimicrobial agent” (priority 2002, published 2005)

Columns and labels:
Assay type in all cases: cell-based
Bacillus subtilis = test: Zone Inhibition Assay; set-up: key: +++=large zone of inhibition; −=no zone of inhibition; settings: 3 μL of a 10 μg/mL sample on a filter disc on a lawn of bacteria, arbitrary scale
Procedure: (§1) Inhibition of various bacteria by compound 1 (n=6, and n=4) are described in Table 2. The biological data were determined by a Zone Inhibition Assay method. The zone of inhibition was measured using an arbitrary scale: (+++=large zone of inhibition, −=no zone of inhibition). Compound 1 (n=6, and n=4) were tested by spotting 3 μL of a 10 μg/mL sample onto a filter disc which was placed on a lawn of bacteria. N.B. Compound 1 (n=8) was used as a positive control.

Enterococcus faecalis = test: Zone Inhibition Assay; set-up: key: +++=large zone of inhibition; −=no zone of inhibition; settings: 3 μL of a 10 μg/mL sample on a filter disc on a lawn of bacteria, arbitrary scale
Procedure: as §1

Mycobacterium smegmatis = test: Zone Inhibition Assay; set-up: key: +++=large zone of inhibition; −=no zone of inhibition; settings: 3 μL of a 10 μg/mL sample on a filter disc on a lawn of bacteria, arbitrary scale
Procedure: as §1

Staphylococcus aureus [1] = test: Zone Inhibition Assay; set-up: key: +++=large zone of inhibition; −=no zone of inhibition; settings: 3 μL of a 10 μg/mL sample on a filter disc on a lawn of bacteria, arbitrary scale
Procedure: as §1

Enterococci sp. = test: MIC by BACTEC or Mueller-Hinton agar method
Procedure: (§2) Inhibition of various bacteria by compound 1 (n=8) is described in Table 1. The biological data were determined by either the BACTEC or Mueller-Hinton agar method and expressed as a minimum inhibitory concentration (MIC).

M. abscessus = test: MIC by BACTEC or Mueller-Hinton agar method
Procedure: as §2

M. avium intracellulare = test: MIC by BACTEC or Mueller-Hinton agar method
Procedure: as §2

M. fortuitum = test: MIC by BACTEC or Mueller-Hinton agar method
Procedure: as §2

[2] = tested on: Mycobacterium tuberculosis; test: MIC by BACTEC or Mueller-Hinton agar method
Procedure: as §2

N. nova = test: MIC by BACTEC or Mueller-Hinton agar method
Procedure: as §2

Nocardia asteroides = test: MIC by BACTEC or Mueller-Hinton agar method
Procedure: as §2

[3] = tested on: Rapid Growing Atypical Mycobacterial Strains; test: MIC by BACTEC or Mueller-Hinton agar method
Procedure: as §2

[4] = tested on: S. aureus (Coagulas-negative); test: MIC by BACTEC or Mueller-Hinton agar method
Procedure: as §2

Staphylococcus aureus [5] = test: MIC by BACTEC or Mueller-Hinton agar method
Procedure: as §2

SMILES: CCCCCCCCN(CCCCCCCC)S[C@@H]1O[C@@H]([C@H](O)CO)[C@H](O)[C@H]1O [1 (n=6), N,N-Dioctyl-S-(1-thio-β-D-galactofuranosyl)sulfenamide]
- Zone of Inhibition (Bacillus subtilis): +++
- Zone of Inhibition (Enterococcus faecalis): +++
- Zone of Inhibition (Mycobacterium smegmatis): +++
- Zone of Inhibition (Staphylococcus aureus [1]): +++

SMILES: CCCCCCCCCCN(CCCCCCCCCC)S[C@@H]1O[C@@H]([C@H](O)CO)[C@H](O)[C@H]1O [Compound 1 (n=8), N,N-Didecyl-S-(1-thio-β-D-galactofuranosyl)sulfenamide]
- MIC (Enterococci sp.): 5 to 50 µg/mL
- MIC (M. abscessus): <5 µg/mL
- MIC (M. avium intracellulare): <5 µg/mL
- MIC (M. fortuitum): <5 µg/mL
- MIC [2]: <5 µg/mL
- MIC (N. nova): <5 µg/mL
- MIC (Nocardia asteroides): <5 µg/mL
- MIC [3]: <5 µg/mL
- MIC [4]: 5 to 50 µg/mL
- MIC (Staphylococcus aureus [5]): 5 to 50 µg/mL
